In patent US9937185B2, “Imidazopyridine compounds and uses thereof” (NEOMED INSTITUTE, priority 2013, dated 2018):

Experiments:
[1] = target: T1, hP2X3 (human Purinergic P2X receptors subtype 3) (Homo sapiens, UniProt P56373); experiment: Fluo-4 calcium mobilization assay (FDSS7000), antagonists at human P2X3 receptor in RLE/hP2X3 cells; format: cell-based; conditions: RLE cells stably expressing hP2X3; 20 min preincubation; 2 uM ATP
T1 construct: expressed in transfected cells; host or cells: RLE cells (rat liver endothelium, ATCC)
T1 sequence (P56373 1-397): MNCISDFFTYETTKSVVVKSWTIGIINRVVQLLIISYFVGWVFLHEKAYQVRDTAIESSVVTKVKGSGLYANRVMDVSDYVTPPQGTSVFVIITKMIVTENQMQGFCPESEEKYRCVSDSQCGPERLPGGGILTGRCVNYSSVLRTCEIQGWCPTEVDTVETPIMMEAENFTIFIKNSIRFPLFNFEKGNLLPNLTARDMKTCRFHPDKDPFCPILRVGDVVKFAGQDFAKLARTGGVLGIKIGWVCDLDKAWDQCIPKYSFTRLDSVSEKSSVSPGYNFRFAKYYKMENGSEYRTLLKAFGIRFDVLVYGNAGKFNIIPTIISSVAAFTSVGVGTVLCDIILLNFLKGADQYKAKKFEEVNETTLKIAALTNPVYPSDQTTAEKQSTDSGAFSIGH
Protocol: The antagonist properties of compounds in the present invention were assayed as inhibitors of intracellular calcium increase induced by activation of hP2X3 (human Purinergic P2X receptors subtype 3, accession number AB016608 for clone A and accession number NM_002559 for clone B), expressed in RLE cells (rat liver […], ATCC. The RLE/hP2X3 cells were grown in William's medium 1× (Gibco, 12551-032), supplemented with 10% Fetal bovine serum (Wisent, 090850), 2 mM L-Glutamine (Wisent, 609-065-EL), and 600 μg/mL Geneticin G-418 (Wisent, 61234) in a humidified incubator (5% CO2 and 37° C.).
Fluo-4 assay on FDSS7000 (Hamamatsu) was performed using cryopreserved RLE cells stably expressing hP2X3 plated in 384 well plates, 24 hr before the experiment at a density appropriate for obtaining the desired final confluence. After processing the cell plates with Fluo-4 and performing a subsequent incubation followed by washing steps, a double addition was carried out. The first addition included the test compounds diluted in HBSS buffer containing 2 mM CaCl2 preincubated for 20 min before a second addition. The second addition included 2 uM of ATP. Calcium mobilization was measured with the FDSS7000 over a time lapse of 3 min, and fluorescent counts were exported for analysis. […] Hill coefficients and % inhibitions can also be determined.

[2] = system: rat FCA 96 hr paw model of inflammatory pain, mechanical hyperalgesia; experiment: Rat FCA 96 hr paw model of inflammatory pain: mechanical hyperalgesia (Ugo Basile analgesy meter); format: in vivo; conditions: oral dosing 0.3-1-3-10-20 μmol/kg, 96 h after FCA
Protocol: (§1) One of the compounds of the present invention was evaluated in an in vivo model of inflammatory pain.
(§2) Male Sprague-Dawley rats (Charles River, St-Constant, Qc, CAN) weighing 200-225 g were utilized for the animal experiment studies. The animals were group-housed in polycarbonate, ventilated cages (filter top) in a controlled environment room (12-h light/dark cycle, 20.5-23.5° C., relative humidity: 40-70%) with food (14% Protein Rodent Maintenance Diet, Harlan Teklad, Madisson, Wis., USA) and water ad libidum.
Inflammation was induced by injection of a single 40 μl Freund's complete adjuvant (FCA) intra-plantar injection into the rat's left hindpaw. All experiments were conducted 96h after FCA administration. Twenty-four hours prior to behavioral testing animals were brought to the laboratory for acclimatization to the new environment. Animals were sacrificed immediately after data acquisition.
Mechanical hyperalgesia was assessed using the Ugo Basile analgesy meter (Ugo Basile, Comerio, Italy) Animals were gently restrained, and a steadily increasing pressure was applied to the dorsal surface of a hind paw via a probe with a dome-shaped tip (diameter of 1 mm). The pressure required to elicit paw withdrawal was determined. An assay cut off was set at 295 g. […] Paw withdrawal thresholds were calculated as the mean of the two values. […]

[3] = system: rat FCA 96 hr paw model of inflammatory pain, heat hyperalgesia; experiment: Rat FCA 96 hr paw model of inflammatory pain: heat hyperalgesia (Plantar Test); format: in vivo; conditions: oral dosing 0.3-1-3-10-20 μmol/kg, 96 h after FCA
Protocol: as §1, §2
Inflammation was induced by injection of a single 40 μl Freund's complete adjuvant (FCA) intra-plantar injection into the rat's left hindpaw. All experiments were conducted 96h after FCA administration. […]
Heat hyperalgesia (Plantar Test) was assessed using a Paw Thermal Stimulator to apply a controlled heat to the plantar surface of the affected paw. […] The heat source and timer were then turned on simultaneously; when the animal withdrew the hind paw the number of seconds was recorded. […]
Satellite animals were used to monitor the free plasma concentration of example 15 at the doses and time points used in the nociceptive tests. Free plasma EC50 values in behavioral studies were determined from 4-point concentration-response curves using non-linear regression and a sigmoidal variable slope logistic model (Prism 4.03, GraphPad Software Inc., USA).

SMILES	IC50 [1] [nM]	other results
CNC(=O)c1cc(F)c(-c2nc3cc(Cl)ccn3c2C[C@H]2CN(C(C)=O)CCO2)c(F)c1 [Example 29]	5	
CNC(=O)c1ccc(-c2nc3cc(C)ccn3c2CC2CCN(C(C)=O)CC2)c(C)c1 [Example 46, 4-(3-((1-acetylpiperidin-4-yl)methyl)-7-methylimidazo[1,2-a]pyridin-2-yl)-N,3-dimethylbenzamide]	66	
CNC(=O)c1cc(C)c(-c2nc3cc(C)ccn3c2C[C@@H]2CN(C(C)=O)CCO2)cc1F [Example 19]	158	
CNC(=O)c1ccc(-c2nc3cc(C)ccn3c2CC2CCN(C(=O)OC)C2)c(C)c1 (stereo not shown) [Example 41]	84	
CNC(=O)c1cc(C)c(-c2nc3cc(C)ccn3c2C[C@H]2CN(C(C)=O)CCO2)cc1F [Example 18]	7	
CNC(=O)c1ccc(-c2nc3cc(C)ccn3c2C[C@H]2CN(C(C)=O)CCO2)c(C)c1 [Example 20]	4	
CNC(=O)c1cc(F)c(-c2nc3cc(C)ccn3c2C[C@H]2CN(C(=O)OC)CCO2)c(F)c1 [Example 15, (S)-methyl-2-((2-(2,6-difluoro-4-(methylcarbamoyl)phenyl)-7-methylimidazo[1,2-a]pyridin-3-yl)methyl)morpholine-4-carboxylate]		reversal of mechanical hyperalgesia [2]: free plasma concentration dependent reversal; reversal of heat hyperalgesia [3]: free plasma concentration dependent reversal
CNC(=O)c1cc(F)c(-c2nc3cc(C)ccn3c2C[C@H]2CN(C(C)=O)CCO2)c(F)c1 [Example 32]	3	
CNC(=O)c1ccc(-c2nc3cc(Cl)ccn3c2C[C@@H]2CN(C(C)=O)CCO2)c(C)c1 [Example 27]	111	
CCC(=O)N1CCO[C@@H](Cc2c(-c3cc(F)c(C(=O)NC)cc3C)nc3cc(Cl)ccn23)C1 [Example 26]	11	
CCC(=O)N1CCO[C@@H](Cc2c(-c3c(F)cc(C(=O)NC)cc3F)nc3cc(C)ccn23)C1 [Example 16]	3	
CNC(=O)c1ccc(-c2nc3cc(C)ccn3c2CC2CC(C)N(C(C)=O)C2)c(C)c1 (stereo not shown) [Example 42]	59	
CCC(=O)N1CCO[C@H](Cc2c(-c3c(F)cc(C(=O)NC)cc3F)nc3cc(C)ccn23)C1 [Example 35]	16	
CNC(=O)c1ccc(-c2nc3cc(C)ccn3c2CC2CCCN(C(C)=O)C2)c(C)c1 (stereo not shown) [Example 38]	10	
CNC(=O)c1ccc(-c2nc3cc(Cl)ccn3c2C[C@H]2CN(C(C)=O)CCO2)c(C)c1 [Example 25]	7	
CNC(=O)c1ccc(-c2nc3cc(C)ccn3c2C[C@@H]2CN(C(C)=O)CCO2)c(C)c1 [Example 47]	87	
CNC(=O)c1ccc(-c2nc3cc(C)c(F)cn3c2C[C@H]2CN(C(C)=O)CCO2)c(C)c1 [Example 39]	10	
CCC(=O)N1CCO[C@@H](Cc2c(-c3cc(F)c(C(=O)NC)cc3C)nc3cc(C)ccn23)C1 [Example 17]	6	

More lines, main results first:

IC50 [1] [nM]	SMILES	other results
45	CNC(=O)c1ccc(-c2nc3cc(C)ccn3c2C[C@@H]2CN(C(=O)OC)CCO2)c(C)c1 [Example 22]	
10	CNC(=O)c1cc(C)c(-c2nc3cc(C)ccn3c2C[C@H]2CN(C(=O)OC)CCO2)cc1F [Example 24]	
103	CNC(=O)c1ccc(-c2nc3cc(C)ccn3c2CC2CCN(C(C)=O)C2)c(C)c1 (stereo not shown) [Example 44]	
11	CNC(=O)c1ccc(-c2nc3cc(C)ccn3c2CC2CCCN(C(=O)OC)C2)c(C)c1 (stereo not shown) [Example 37]	
18	CNC(=O)c1cc(F)c(-c2nc3cc(C)ccn3c2C[C@H]2CN(C(C)=O)CCO2)cc1F [Example 23]	
7	CCNC(=O)c1ccc(-c2nc3cc(C)ccn3c2C[C@H]2CN(C(C)=O)CCO2)c(C)c1 [Example 33]	
26	CNC(=O)c1ccc(-c2nc3cc(C)ccn3c2CC2CCN(C(=O)OC)CC2)c(C)c1 [Example 45, methyl 4-((7-methyl-2-(2-methyl-4-(methylcarbamoyl)phenyl)imidazo[1,2-a]pyridin-3-yl)methyl)piperidine-1-carboxylate]	
6	CCC(=O)N1CCO[C@@H](Cc2c(-c3c(F)cc(C(=O)NC)cc3F)nc3cc(Cl)ccn23)C1 [Example 30]	
7	CNC(=O)c1ccc(-c2nc3cc(C)ccn3c2C[C@H]2CN(C(=O)OC)CCO2)c(C)c1 [Example 21]	
114	CNC(=O)c1ccc(-c2nc3cc(C#N)ccn3c2C[C@H]2CN(C(=O)OC)CCO2)c(C)c1 [Example 36]	
6	CNC(=O)c1cc(F)c(-c2nc3cc(Cl)ccn3c2C[C@H]2CN(C(=O)OC)CCO2)c(F)c1 [Example 28]	
5	CCC(=O)N1CCO[C@@H](Cc2c(-c3ccc(C(=O)NC)cc3C)nc3cc(C)ccn23)C1 [Example 31]	
